2 compounds from patent publication US20100255127A1, “AROMATASE INHIBITOR” (KRACIE PHARMA, LTD., priority 2007, published 2010) can be followed below.

The target in the test is T1, aromatase (CYP19) (Homo sapiens, UniProt P11511).
T1 construct: purchased BD Biosciences Inc. (U.S.A.)
T1 sequence (P11511 1-503): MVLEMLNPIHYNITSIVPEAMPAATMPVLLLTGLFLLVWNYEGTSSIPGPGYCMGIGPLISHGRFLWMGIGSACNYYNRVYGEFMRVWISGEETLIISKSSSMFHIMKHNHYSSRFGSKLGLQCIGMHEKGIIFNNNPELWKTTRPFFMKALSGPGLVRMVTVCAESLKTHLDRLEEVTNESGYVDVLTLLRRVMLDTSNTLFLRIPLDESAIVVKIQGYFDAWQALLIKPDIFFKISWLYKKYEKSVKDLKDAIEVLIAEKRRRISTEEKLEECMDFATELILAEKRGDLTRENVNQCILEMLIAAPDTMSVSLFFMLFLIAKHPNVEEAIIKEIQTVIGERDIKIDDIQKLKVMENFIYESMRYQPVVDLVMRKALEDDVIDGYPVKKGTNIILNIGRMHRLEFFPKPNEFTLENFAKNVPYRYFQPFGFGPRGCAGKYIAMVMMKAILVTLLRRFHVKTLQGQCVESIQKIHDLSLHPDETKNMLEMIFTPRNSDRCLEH
The test is described as follows: Measurement of aromatase-inhibitory activity (fluorometric HFC formation, 96-well microplate, BD Biosciences reagents). It is filed as biochemical. To be noted: for inhibition at 0.18 µM: concentration 0.18 μM; for inhibition at 0.18 µM / inhibition at 0.53 µM / inhibition at 1.6 µM / inhibition at 4.8 µM: average of three experiments, read-out: Inhibitory rate; for inhibition at 0.53 µM: concentration 0.53 μM; for inhibition at 1.6 µM: concentration 1.60 μM; for inhibition at 4.8 µM: concentration 4.80 μM; for IC50: text b76, components. The protocol: That is, by using a 96-well microplate, after 144 μL of a previously prepared NADPH-producing system solution (NADPH-Cofactor Mix) and 6 μL of an extract solution of test samples were mixed, and incubated at 37° C. for 10 minutes. Then, 100 μL of a solution (Enzyme Substrate Mix) containing an enzyme and a substrate was mixed with the above mixture, and reacted at 37° C. for 30 minutes. Thereafter, 75 μL of a reaction-terminating solution was added to the above, and an amount of a formed HFC (7-hydroxy-4-trifluoromethyl coumarin) which is a metabolite of the substrate was obtained by measuring a fluorescent intensity at an excitation wavelength of 409 nm and a fluorescent wavelength of 538 nm using a plate reader ([…]luor, TECAN). Incidentally, 75 μL of stop solution was added to a blank after incubation for 10 minutes, in place of adding the solution of enzyme and substrate. Aromatase inhibitory rate was calculated by the formula 1.
Aromatase inhibitory rate (%)={1−[…]}×100 [Numerical formula 1]
A=(Absorbance after enzymatic reaction without test sample−Absorbance of blank thereof) B=(Absorbance after enzymatic reaction with each test sample−Absorbance of each blank thereof)
Also, to avoid a non-specific inhibitory action (for example, protein coagulation action due to tannin), a control protein which incidents to the reagent was added to the NADPH-producing system solution.
With regard to solution of test sample, the concentration was stepwisely diluted and an inhibitory rate at each concentration was obtained, and from the results, the concentration of 50% inhibition (IC50 value) was obtained according to the interpolation method.

The term IC50 denotes the concentration that inhibits the measured activity by half. On to `COc1ccc(-c2oc3c(CC=C(C)C)c(O[C@@H]4O[C@H](CO)[C@@H](O)[C@H](O)[C@H]4O)cc(O)c3c(=O)c2O[C@@H]2O[C@@H](C)[C@H](O)[C@@H](O)[C@H]2O)cc1` [Icariin, icariin], for which the inhibition at 0.18 µM was found to be 30.4 ± 1.5%, the inhibition at 0.53 µM came to 48.1 ± 6.9%, the inhibition at 1.6 µM stood at 63.5 ± 12.6% and the inhibition at 4.8 µM worked out at 67.7 ± 21.3%. The IC50 was 754 nM.
On to `COc1cc(C2Oc3cc(C4Oc5cc(O)cc(O)c5C(=O)C4O)ccc3OC2CO)ccc1O` (centres unmarked) [Silybin, silybin], for which the “aromatase-inhibitory activity, concentration dependency in words” value is recorded as “concentration-dependent inhibitory activity”; the inhibition at 0.18 µM was found to be 8.7 ± 9.3%; the inhibition at 0.53 µM amounted to 12.4 ± 4.6%; the inhibition at 1.6 µM stood at 20.6 ± 1.2%. Besides, the inhibition at 4.8 µM was 59.4 ± 7.1% and the IC50 stood at 4860 nM.
